Laboratory results reported in patent US20110112100A1, “Hepatitis C Virus Inhibitors” (priority 2009, published 2011).

Experiments:
1a-H77 replicon cells = assay: HCV 1a replicon inhibitory activity (Renilla luciferase); type: cell-based, hepatitis C virus; conditions: Hepatitis C virus; geometric mean, 95% confidence intervals in parentheses; 48 hours; medium with 10% FCS; read-out: IC50 value (95% Confidence Intervals) pM Replicon 1A assay
Protocol: (§1) Test compounds were solubilised to 4 mM in 100% DMSO. Dilutions were made to the desired starting concentration in 100% DMSO and then 1 in 3 dilutions made, again in 100% DMSO. 0.5 μl of each sample was added to 384-well assay plates. White Lumitrac (Greiner) plates were used for the 1a and 1b replicon assays and black, clear bottomed (Greiner) plates were used for the WST-1 cytotoxity assay.
1a-H77 replicon cells (licensed from Apath LLC) were resuspended to a concentration of 1.4×10^5 cells/ml by addition of pre-warmed assay medium (Dulbecco's Modified Eagle's Medium (DMEM)+10% fetal calf serum (FCS)). 50 μl of this suspension was added to each well of a 384-well assay plate (Lumitrac, Greiner), already containing 0.5 μl of test compound.
All plates were covered with gas permeable seals and incubated at 37° C., 5% CO2 for 48 hours. After 48 hours, the assay plate was removed from the incubator and left to cool to room temperature for 15 to 30 mins. Medium was removed from the wells and 5 μl 1× lysis buffer (from Promega's Renilla Luciferase assay kit, E2820) was added to each well. The plate was incubated at room temperature for 15 mins then 15 μl 1×Assay Substrate (from the same kit) was added to each well. Luminescence was read immediately using an EnVision (Perkin Elmer) plate reader. The half maximal effective concentration (1050) values were calculated by constructing log concentration-response curves for each compound.

1b (con1) replicon cells = assay: HCV 1b replicon inhibitory activity (luciferase, Britelite Plus); type: cell-based, hepatitis C virus; conditions: Hepatitis C virus; geometric mean, 95% confidence intervals in parentheses; 48 hours; medium with 10% FCS; read-out: IC50 value (95% Confidence Intervals) pM Replicon 1B assay
Protocol: as §1
1b (con1) replicon cells (pFK1389lucubineo/NS3-3′/ET/9B, licensed from Ralf Bartenschlager, University of Heidelberg) were resuspended to a concentration of 1.4×10^5 cells/ml by addition of pre-warmed medium (DMEM+10% FCS). 50 μl of this suspension was added to each well of a 384-well assay plate (Lumitrac, Greiner) already containing 0.5 μl of test compound.
All plates were covered with gas permeable seals and incubated at 37° C., 5% CO2 for 48 hours. After 48 hours, the plate was removed from the incubator and left to cool to room temperature for 15-30 mins. 35 ul of reconstituted Lyophilised Britelite Plus Substrate (PerkinElmer, 6016767) to medium was added to each well. Luminescence was read after 1 min but before 15 mins on an EnVision (Perkin Elmer) plate reader. The half maximal effective concentration (1050) values were calculated by constructing log concentration-response curves for each compound.

Work on `COC(=O)N[C@H](C(=O)N1CCC[C@H]1c1ncc(-c2ccc(-c3cnc4cc(-c5cnc([C@@H]6CCCN6C(=O)[C@@H](NC(=O)OC)C(C)C)[nH]5)ccc4n3)cc2)[nH]1)C(C)C` [Example 4, Methyl {(2S)-1-[(2S)-2-{5-[4-(6-{2-[(2S)-1-{(2S)-2-[(methoxycarbonyl)amino]-3-methylbutanoyl}pyrrolidin-2-yl]-1H-imidazol-5-yl}quinoxalin-2-yl)phenyl]-1H-imidazol-2-yl}pyrrolidin-1-yl]-3-methyl-1-oxobutan-2-yl}carbamate] yielded an IC50 (1a-H77 replicon cells) of 17.4 pM and an IC50 (1b (con1) replicon cells) of 7.7 pM.

`COC(=O)N[C@H](C(=O)N1CCC[C@H]1c1ncc(-c2ccc(-c3ccc4nc(-c5cnc([C@@H]6CCCN6C(=O)[C@@H](NC(=O)OC)C(C)C)[nH]5)cnc4c3)cc2)[nH]1)C(C)C` [Example 5, Methyl {(2S)-1-[(2S)-2-{5-[4-(2-{2-[(2S)-1-{(2S)-2-[(methoxycarbonyl)amino]-3-methyl-butanoyl}pyrrolidin-2-yl]-1H-imidazol-5-yl}quinoxalin-6-yl)phenyl]-1H-imidazol-2-yl}pyrrolidin-1-yl]-3-methyl-1-oxobutan-2-yl}carbamate] was tested, and the IC50 (1a-H77 replicon cells) was 387 pM and the IC50 (1b (con1) replicon cells) was 8.12 pM.

`COC(=O)N[C@H](C(=O)N1CCC[C@H]1c1nc(-c2ccc(-c3ccc4cc(-c5cnc([C@@H]6CCCN6C(=O)[C@@H](NC(=O)OC)C(C)C)[nH]5)ccc4c3)nc2)c[nH]1)C(C)C` [Example 6, Methyl {(2S)-1-[(2S)-2-{5-[6-(5-{2-[(2S)-1-{(2S)-2-[(methoxycarbonyl)amino]-3-methyl-butanoyl}pyrrolidin-2-yl]-1H-imidazol-4-yl}pyridin-2-yl)naphthalen-2-yl]-1H-imidazol-2-yl}pyrrolidin-1-yl]-3-methyl-1-oxobutan-2-yl}carbamate] gave an IC50 (1a-H77 replicon cells) of 56.4 pM and an IC50 (1b (con1) replicon cells) of 3.51 pM.

`COC(=O)N[C@H](C(=O)N1CCC[C@H]1c1ncc(-c2cnc(-c3ccc4cc(-c5cnc([C@@H]6CCCN6C(=O)[C@@H](NC(=O)OC)C(C)C)[nH]5)ccc4c3)nc2)[nH]1)C(C)C` [Example 7, Methyl {(2S)-1-[(2S)-2-{5-[6-(5-{2-[(2S)-1-{(2S)-2-[(methoxycarbonyl)amino]-3-methyl-butanoyl}pyrrolidin-2-yl]-1H-imidazol-5-yl}pyrimidin-2-yl)naphthalen-2-yl]1H-imidazol-2-yl}pyrrolidin-1-yl]-3-methyl-1-oxobutan-2-yl}carbamate] was tested, and the IC50 (1a-H77 replicon cells) was 68.4 pM and the IC50 (1b (con1) replicon cells) was 21.4 pM.

Work on `COC(=O)N[C@H](C(=O)N1CCC[C@H]1c1ncc(-c2ccc(-c3ccc4cc(-c5cnc([C@@H]6CCCN6C(=O)[C@@H](NC(=O)OC)C(C)C)[nH]5)ncc4c3)cc2)[nH]1)C(C)C` [Example 8, Methyl {(2S)-1-[(2S)-2-{5-[4-(3-{2-[(2S)-1-{(2S)-2-[(methoxycarbonyl)amino]-3-methyl-butanoyl}pyrrolidin-2-yl]-1H-imidazol-5-yl}isoquinolin-7-yl)phenyl]-1H-imidazol-2-yl}pyrrolidin-1-yl]-3-methyl-1-oxobutan-2-yl}carbamate] yielded an IC50 (1a-H77 replicon cells) of 91.2 pM and an IC50 (1b (con1) replicon cells) of 20.5 pM.

`COC(=O)N[C@H](C(=O)N1CCC[C@H]1c1ncc(-c2ccc(-c3cnc4cc(-c5cnc([C@@H]6CCCN6C(=O)[C@@H](NC(=O)OC)C(C)C)[nH]5)ccc4n3)nc2)[nH]1)C(C)C` [Example 9, Methyl {(2S)-1-[(2S)-2-{5-[6-(6-{2-[(2S)-1-{(2S)-2-[(methoxycarbonyl)amino]-3-methyl-butanoyl}pyrrolidin-2-yl]-1H-imidazol-5-yl}quinoxalin-2-yl)pyridin-3-yl]-1H-imidazol-2-yl}pyrrolidin-1-yl]-3-methyl-1-oxobutan-2-yl}carbamate] showed an IC50 (1a-H77 replicon cells) of 42.9 pM and an IC50 (1b (con1) replicon cells) of 12.7 pM.

Compound `COC(=O)N[C@H](C(=O)N1CCC[C@H]1c1nc(-c2ccc(-c3cc4ccc(-c5cnc([C@@H]6CCCN6C(=O)[C@@H](NC(=O)OC)C(C)C)[nH]5)cc4cn3)nc2)c[nH]1)C(C)C` [Example 11, Methyl {(2S)-1-[(2S)-2-{4-[6-(7-{2-[(2S)-1-{(2S)-2-[(methoxycarbonyl)amino]-3-methyl-butanoyl}pyrrolidin-2-yl]-1H-imidazol-5-yl}isoquinolin-3-yl)pyridin-3-yl]-1H-imidazol-2-yl}pyrrolidin-1-yl]-3-methyl-1-oxobutan-2-yl}carbamate] has an IC50 (1a-H77 replicon cells) of 42.1 pM and an IC50 (1b (con1) replicon cells) of 20.8 pM.

In the case of `COC(=O)N[C@H](C(=O)N1CCC[C@H]1c1nc(-c2ccc3cc(-c4ccc(-c5cnc([C@@H]6CCCN6C(=O)[C@@H](NC(=O)OC)C(C)C)[nH]5)cc4)ccc3n2)c[nH]1)C(C)C` [Example 13, Methyl {(2S)-1-[(2S)-2-{5-[4-(2-{2-[(2S)-1-{(2S)-2-[(methoxycarbonyl)amino]-3-methyl-butanoyl}pyrrolidin-2-yl]-1H-imidazol-4-yl}quinolin-6-yl)phenyl]-1H-imidazol-2-yl}pyrrolidin-1-yl]-3-methyl-1-oxobutan-2-yl}carbamate], the IC50 (1a-H77 replicon cells) is reported as 78.1 pM and the IC50 (1b (con1) replicon cells) is reported as 12 pM.

Work on `COC(=O)N[C@H](C(=O)N1CCC[C@H]1c1ncc(-c2ccc(-c3cnc4cc(-c5cnc([C@@H]6CCCN6C(=O)[C@@H](NC(=O)OC)C(C)C)[nH]5)cnc4n3)cc2)[nH]1)C(C)C` [Example 14, Methyl {(2S)-1-[(2S)-2-{5-[3-(4-{2-[(2S)-1-{(2S)-2-[(methoxycarbonyl)amino]-3-methyl-butanoyl}pyrrolidin-2-yl]-1H-imidazol-5-yl}phenyl)pyrido[2,3-b]pyrazin-7-yl]-1H-imidazol-2-yl}pyrrolidin-1-yl]-3-methyl-1-oxobutan-2-yl}carbamate] yielded an IC50 (1a-H77 replicon cells) of 882 pM and an IC50 (1b (con1) replicon cells) of 189 pM.

`COC(=O)N[C@H](C(=O)N1CCC[C@H]1c1ncc(-c2ccc(-c3nc(O)c4cc(-c5cnc([C@@H]6CCCN6C(=O)[C@@H](NC(=O)OC)C(C)C)[nH]5)ccc4n3)cc2)[nH]1)C(C)C` [Example 15, Methyl {(2S)-1-[(2S)-2-{5-[4-(4-hydroxy-6-{2-[(2S)-1-{(2S)-2-[(methoxycarbonyl)amino]-3-methylbutanoyl}pyrrolidin-2-yl]-1H-imidazol-5-yl}quinazolin-2-yl)phenyl]-1H-imidazol-2-yl}pyrrolidin-1-yl]-3-methyl-1-oxobutan-2-yl}carbamate] gave an IC50 (1a-H77 replicon cells) of 194 pM and an IC50 (1b (con1) replicon cells) of 102 pM.

With `CCOc1nc(-c2ccc(-c3cnc([C@@H]4CCCN4C(=O)[C@@H](NC(=O)OC)C(C)C)[nH]3)cc2)nc2ccc(-c3cnc([C@@H]4CCCN4C(=O)[C@@H](NC(=O)OC)C(C)C)[nH]3)cc12` [Example 16, Methyl {(2S)-1-[(2S)-2-{5-[4-(4-ethoxy-6-{2-[(2S)-1-{(2S)-2-[(methoxycarbonyl)amino]-3-methylbutanoyl}pyrrolidin-2-yl]-1H-imidazol-5-yl}quinazolin-2-yl)phenyl]-1H-imidazol-2-yl}pyrrolidin-1-yl]-3-methyl-1-oxobutan-2-yl}carbamate] the IC50 (1a-H77 replicon cells) was 35.3 pM and the IC50 (1b (con1) replicon cells) was 5.28 pM.

Compound `COC(=O)N[C@H](C(=O)N1CCC[C@H]1c1nc(-c2ccc(-c3nc4ccc(-c5c[nH]c([C@@H]6CCCN6C(=O)[C@@H](NC(=O)OC)C(C)C)n5)cc4nc3OC)cc2)c[nH]1)C(C)C` [Example 17, Methyl {(2S)-1-[(2S)-2-{4-[4-(3-methoxy-6-{2-[(2S)-1-{(2S)-2-[(methoxycarbonyl)amino]-3-methylbutanoyl}pyrrolidin-2-yl]-1H-imidazol-4-yl}quinoxalin-2-yl)phenyl]-1H-imidazol-2-yl}pyrrolidin-1-yl]-3-methyl-1-oxobutan-2-yl}carbamate] has an IC50 (1a-H77 replicon cells) of 560 pM and an IC50 (1b (con1) replicon cells) of 22.3 pM.

In the case of `COC(=O)N[C@H](C(=O)N1CCC[C@H]1c1nc(-c2ccc(-c3nc4ccc(-c5c[nH]c([C@@H]6CCCN6C(=O)[C@@H](NC(=O)OC)C(C)C)n5)cc4nc3O)cc2)c[nH]1)C(C)C` [Example 18, Methyl {(2S)-1-[(2S)-2-{4-[4-(3-hydroxy-6-{2-[(2S)-1-{(2S)-2-[(methoxycarbonyl)amino]-3-methylbutanoyl}pyrrolidin-2-yl]-1H-imidazol-4-yl}quinoxalin-2-yl)phenyl]-1H-imidazol-2-yl}pyrrolidin-1-yl]-3-methyl-1-oxobutan-2-yl}carbamate], the IC50 (1a-H77 replicon cells) is reported as 536 pM and the IC50 (1b (con1) replicon cells) is reported as 35.8 pM.

Compound `COC(=O)N[C@H](C(=O)N1CCC[C@H]1c1nc(-c2ccc(-c3cnc4cc(-c5cnc([C@@H]6CCCN6C(=O)[C@@H](NC(=O)OC)C(C)C)[nH]5)cnc4c3)cc2)c[nH]1)C(C)C` [Example 19, Methyl {(2S)-1-[(2S)-2-{5-[7-(4-{2-[(2S)-1-{(2S)-2-[(methoxycarbonyl)amino]-3-methylbutanoyl}pyrrolidin-2-yl]-1H-imidazol-4-yl}phenyl)-1,5-naphthyridin-3-yl]-1H-imidazol-2-yl}pyrrolidin-1-yl]-3-methyl-1-oxobutan-2-yl}carbamate] has an IC50 (1a-H77 replicon cells) of 468 pM and an IC50 (1b (con1) replicon cells) of 38.3 pM.
